Consider one compound from patent US20250057808A1, “COMPOSITION COMPRISING BETA LACTAM FOR TREATING ALCOHOL DEPENDENCE AND ALCOHOL ASSOCIATED DISEASES OR CONDITIONS” (Temple University of the Commonwealth System of Higher …, priority 2023, published 2025).

Entries after “also recorded” stand apart in the source; their conditions may differ.

One series concerns mGluR5. The series is described as follows: Western blot mGluR5 expression in NAc-core and NAc-shell. Format: in vivo, P rats. The following applies: MC-100093 50 mg/kg or ceftriaxone 200 mg/kg i.p. 5 days. The protocol:
(§1) We used micro-punch procedure to dissect the subregions of the NAc such as NAc-core and NAc-shell as well as the subregions of prefrontal cortex such as infralimbic (IL) and prelimbic (PL) from the brain on day 6 after the last injection day. P rats were removed from the cage and rapidly euthanized by CO2 inhalation followed by rapid decapitation with a guillotine. Brains were isolated and immediately frozen on dry ice and stored at −80° C. The stereotaxic coordinates provided by Paxinos and colleague's rat brain stereotactic atlas was used to isolate NAc-core and NAc-shell using a cryostat apparatus (−20° C.), which then kept at −80° C. for later western blot analyses.
Western Blot assay was performed to measure changes in the expression of GLT-1, xCT, mGluR1, mGluR5, PPAR-α, PPARγ, GAPDH and β-tubulin in the NAc-core and NAc-shell as described in previous publications. A lysis buffer containing protease and phosphatase inhibitors was used to generate a homogenate of liver, Nac-core, and Nac-shell samples. The amount of protein was quantified using a detergent compatible protein assay (Bio-Rad, Hercules, CA, USA) for each sample. Samples were mixed with laemmli dye and loaded with equal amounts on polyacrylamide gels (10%), which separated the proteins using electrophoresis. After that, polyvinylidene difluoride (PVDF) membranes were used to transfer the proteins electrophoretically from the gels. Membranes were incubated in 5% free-fat milk in Tris-buffered saline with Tween-20 (TBST) for 30-60 minutes at room temperature. Membranes were then incubated with appropriate primary antibodies overnight at 4° C.: rabbit anti-GLT-1 (1:5000, Abcam, ab41621), rabbit anti-xCT (1:2000, Abcam, ab175186), rabbit anti-mGluR1 (1:1000, Abcam, ab82211), rabbit anti-mGluR5 (1:1000, Abcam, ab76316), rabbit anti-PPAR-α (1:1000, Abcam, ab24509), and rabbit anti-PPARγ (1:1000, Abcam, ab209350). Mouse anti-β-tubulin (1:1000; BioLegend) was used as a loading control antibody for the brain samples and rabbit anti-GAPDH (1:5000; cell signaling) was used as a loading control antibody for the liver samples. Membranes were washed five times on the next day with TBST followed by incubation with appropriate secondary antibody (1:5000) for 90 minutes at room temperature. Chemiluminescent reagents (Super Signal West Pico, Pierce Inc.) were used to detect the proteins using a GeneSys imaging system to develop the digitized blot images. Water-control group data were represented as 100% and all other values were expressed relative to control group to detect changes in the expression of the protein of interest in the brain and liver samples.
All statistical analyses were conducted with Graphpad Prism software, with p-values of 0.05 or less being statistically significant. […]
On the technique in general: In western blotting, separated proteins are transferred to a membrane and probed.

Series [1] in a line: Ethanol drinking, further studies with MC-100093 100 mg/kg. The class given is in vivo, Male P rats. The procedure: We used an ethanol drinking paradigm as described previously by Alhaddad, et al. (2014). Briefly, animals started the experimental drinking procedure at age of 90 days. The animals had five weeks of exposure to continuous three-bottle choice drinking, 0%, 15% and 30%, v/v ethanol in water, available concurrently. Daily measurement of ethanol intake was performed (g of ethanol intake/kg of body weight/day). We measured the baseline ethanol drinking by average the intake during the last three weeks. Three groups of P rats (n=8-9/group) exposed to the five weeks ethanol exposure. At week 6, rats in each group received daily intraperitoneal injection of either MC-100093 at dose of 50 mg/kg (Ethanol-MC group), Ceftriaxone at dose of 200 mg/kg (Ethanol-CEF group, which also serves as positive control), or equivolume of saline vehicle (Ethanol group) for five days. This paradigm results in pharmacologically relevant blood alcohol concentration (50-200 mg %). Following the criteria for the development of ethanol dependence, rats whose average ethanol intake <4 g/kg/day were excluded from the study. Beside the ethanol exposed groups, another group of P rats (n=8) exposed to only water and food throughout the exposure procedures (control group).
Further studies were conducted to investigate the impact of MC-100093 at higher dose (100 mg/kg, i.p.) on ethanol consumption and glutamate transporter 1 (GLT-1) expression in medial prefrontal cortex (mPFC) subregions such as prelimbic mPFC (PL) and infralimbic mPFC (IL). Male P rats (n=16) were divided in three groups: a) Control water group was exposed to water only for 5 weeks and received i.p. saline on Week 6 for 5 days; b) Saline group was exposed to free choice of ethanol (15% and 30% and water) for 5 weeks, and received saline (i.p.) on Week 6 for 5 days; and c) MC-100093 group was exposed to free choice of ethanol for 5 weeks and received MC-100093 (100 mg/kg/day, i.p.) for 5 days on Week 6.

The test system of the next series is GLT-1. The series is described as follows: GLT-1 expression in mPFC subregions IL and PL (further studies, 100 mg/kg). Format: in vivo, Male P rats. The following applies: MC-100093 100 mg/kg i.p. 5 days. The procedure: as §1
Western Blot assay was performed to measure changes in the expression of GLT-1, xCT, mGluR1, mGluR5, PPAR-α, PPARγ, GAPDH and β-tubulin in the NAc-core and NAc-shell as described in previous publications. A lysis buffer containing protease and phosphatase inhibitors was used to generate a homogenate of liver, Nac-core, and Nac-shell samples. The amount of protein was quantified using a detergent compatible protein assay (Bio-Rad, Hercules, CA, USA) for each sample. Samples were mixed with laemmli dye and loaded with equal amounts on polyacrylamide gels (10%), which separated the proteins using electrophoresis. […]

As for `C[C@@H](O)[C@H]1C(=O)N[C@@H]1[C@@H](C)C(=O)N1CCN(C)CC1` [MC-100093], the “Protein expression of mGluR5 in the NAc-core” value in the series with mGluR5 (among all groups) is given as “non-significant difference; also recorded: no significant difference”. Further, the “Protein expression of mGluR5 in the NAc-shell” value in the series on mGluR5 (vs control or ethanol groups) was “no significant change in the expression of mGluR5; also recorded: significantly downregulated in ethanol group compared to control, Ethanol-MC (50 mg/kg), and Ethanol-CEF (200 mg/kg) groups; also recorded: normalizing levels of mGluR5”. In series [1] (MC-100093 100 mg/kg i.p.), the “Reduction in ethanol consumption as compared to control vehicle group” value is “about 50%”. Further, the “Body weight (grams)” value in series [1] (MC-100093 100 mg/kg i.p. 5 days) was “no significant effects”. Also, the “Water intake (mL/day)” value in series [1] (MC-100093 100 mg/kg i.p. 5 days, vs ethanol/saline, 100 mg/kg) is “significant increase in water intake; also recorded: increase in water consumption was observed on Days 1-5”. In series [1] (male P rats, MC-100093 100 mg/kg i.p. 5 days on Week 6, vs ethanol/saline, 100 mg/kg), the “Ethanol consumption (g/kg/24 hr)” value is “attenuated ethanol intake; also recorded: significantly reduced ethanol consumption on Day 1, 3, 4, and 5; also recorded: reduced ethanol intake on Days 2, 4, 5, 6; also recorded: effect similar to that of ceftriaxone”. For the same compound, the Ethanol preference result in series [1] (male P rats, MC-100093 100 mg/kg/day i.p. 5 days) is reported as “decreased ethanol preference”. In addition, the “GLT-1 expression in the prelimbic frontal cortex (PL)” value with GLT-1 (vs control/saline and ethanol/saline) was “increased GLT-1 expression in both subregions of mPFC; also recorded: non-statistically significant increase of GLT-1 expression; also recorded: upregulated the expression of GLT-1”. Besides, in the series on GLT-1 (vs ethanol/saline), the “GLT-1 expression in the infralimbic prefrontal cortex (IL)” value was “increased GLT-1 expression in both subregions of mPFC; also recorded: significantly higher levels of GLT-1 expression; also recorded: increased the expression of GLT-1; also recorded: upregulated GLT-1 expression”.
